From patent US11623924B2, “Modulators of alpha-1 antitrypsin” (Vertex Pharmaceuticals Incorporated, priority 2018, dated 2023)

Biological target: T1, NL20 human bronchial epithelial cells expressing human Z-AAT (Homo sapiens, UniProt P01009, E366K)
T1 construct: expressed in transfected cells; host or cells: NL20 human bronchial epithelial cells (NL20-SI line, doxycycline added)
Experiment: AAT Function Assay (MSD Assay NL20-SI Cell Line)
Format: cell-based
Conditions: functionally active AAT (AAT-hNE complex) in supernatant of NL20 cells expressing human Z-AAT; read-out: NL20 Func. (EC50)
Description: A. AAT Function Assay (MSD Assay NL20-SI Cell Line)
Alpha-1 antitrypsin (AAT) is a SERPIN (serine protease inhibitor) that inactivates enzymes by binding to them covalently. This assay measured the amount of functionally active AAT in a sample in the presence of the disclosed compounds 1-215 by determining the ability of AAT to form an irreversible complex with human neutrophil Elastase (hNE). In practice, the sample (cell supernatant, blood sample, or other) was incubated with excess hNE to allow AAT-Elastase complex to be formed with all functional AAT in the sample. This complex was then captured to a microplate coated with an anti-AAT antibody. The complex captured to the plate was detected with a labeled anti-Elastase antibody and quantitated using a set of AAT standards spanning the concentration range present in the sample. Meso Scale Discovery (MSD) plate reader, Sulfo-tag labeling, and microplates were used to provide high sensitivity and wide dynamic range.
• 1. Harvest NL20 human bronchial epithelial cells expressing human Z-AAT in OptiMEM™ containing Pen/Strep (P/S) • 2. Seed at 16,000 cells/well in 30 μL (384 well plate) • 3. Centrifuge plates briefly up to speed (1200 rpm) and place into 37° C. incubator overnight Day 2: Compound Addition and Coating Plates with Capture Antibody Compound Addition: • 1. Dispense 40 μL of OptiMEM™ (P/S) with doxycycline (1:1000 stock=0.1 μM final) to each well of the compound plate using a multidrop Combi in hood • 2. Remove cell plate from incubator, flip/blot and take immediately to Bravo to transfer compounds • 3. Return plates to incubator overnight Coat MSD Plates • 1. Dilute capture antibody (Polyclonal Goat anti-AAT) to 5 μg/mL (1:200) in PBS (no BSA). • 2. Dispense 25 μL of diluted capture antibody into all wells of MSD 384-well High Bind plate using the Multidrop equipped with a standard cassette. • 3. Incubate overnight at 4° C. Prepare Blocker A (BSA) Solutions • 1. Prepare solution of 5% MSD Blocker A (BSA) following the manufacturer's instructions. • 2. Further dilute the 5% MSD Blocker A in PBS to 1% (Blocker A) as needed. Day 3: Run MSD Assay
Block Plates • 1. Wash plate 1× with 50 μL Wash buffer (PBS+0.5% Tween 20), and adds 35 μL 5% Block A buffer to block non-specific binding on washer dispenser • 2. Rotate plates on shaker for 1 hour at 600 rpm
Prepare M-AAT Standards • 1. Dilute M-AAT stock to 1.6 μg/mL in 1% BSA Blocker A (Stock in −70° C.); then prepare 12×1:2 serial dilutions in 1% Blocker A • 2. The top starting final concentration on MSD plate is 320 ng/mL. These dilutions correspond to a final concentration of 320, 160, 80, 40, 20, 10, 5, 2.5, 1.25, 0.625, 0.312, 0.156 ng/mL.
Dilution Plate • 1. Add 80 μL of 1% Assay buffer to all wells except columns 1/24 (standards) with Multidrop Combi • 2. Add diluted standards to columns 1 and 24 • 3. Centrifuge dilution plates 1200 rpm briefly
Cell Plate • 1. Aspirate columns which will have the standards from the cell plates in the hood using 16-pin aspirator
Prepare Human Neutrophil Elastase (hNE) • 1. Prepare 1 μg/mL Human Neutrophil Elastase by diluting in 1% Blocker A. • a. Small 100 μg vial—add 1 mL PBS (100 μg/mL) • i. This can then be diluted 1:100 in 1% Assay Buffer for a final 1 μg/mL concentration
MSD—Add hNE (20 μL/well) • 1. After the MSD plate has blocked for at least 1 hour, wash plate 1× with 50 μL Wash buffer (PBS+0.5% Tween 20) and then add 20 μL hNE to each well
Bravo—Cell Plate—Dilution Plate—MSD Plate
Using the Bravo aspirate 10 μL from the cell plate, transfer to the dilution plate (9-fold dilution)
• 1. Mix 25 μL 3×, then aspirate 5 μL, transfer to MSD plate (5-fold dilution) • 2. Mix 10 μL 3×. Total dilution is 45 fold. • 3. Shake plates at 600 rpm for 1.5 hours
Add Functional detection hNE antibody • 1. Wash plate 1× with wash buffer • 2. […]

T1 sequence (P01009 25-418 E366K): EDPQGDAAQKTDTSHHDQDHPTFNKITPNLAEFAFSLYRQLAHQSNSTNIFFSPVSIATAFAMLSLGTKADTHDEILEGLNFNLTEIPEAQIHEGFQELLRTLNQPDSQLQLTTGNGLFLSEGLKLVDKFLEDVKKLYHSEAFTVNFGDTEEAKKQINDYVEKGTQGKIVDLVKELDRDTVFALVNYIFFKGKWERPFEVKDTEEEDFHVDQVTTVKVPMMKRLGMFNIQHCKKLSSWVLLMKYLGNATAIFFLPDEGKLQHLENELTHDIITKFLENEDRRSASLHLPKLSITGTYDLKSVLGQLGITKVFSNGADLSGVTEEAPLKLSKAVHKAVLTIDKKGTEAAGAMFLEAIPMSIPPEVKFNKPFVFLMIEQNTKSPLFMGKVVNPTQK

EC50 [nM]	SMILES
< 1160	Cc1cc(-n2c(C(C)C)c(C3CC(C(=O)O)C3)c3cc4[nH]ncc4cc32)ccc1F (mixture of isomers) [Compound 18]
< 1160	Cc1cc(-n2c(C(C)C)c(C3CC(CC(=O)O)C3)c3cc4[nH]ncc4cc32)ccc1F (mixture of isomers) [Compound 22]
< 1160	Cc1cc(-n2c(C(C)C)c(C3CC(C)(C(=O)O)C3)c3cc4[nH]nc(C)c4cc32)ccc1F (mixture of isomers) [Compound 55, 3-[5-(4-fluoro-3-methyl-phenyl)-6-isopropyl-3-methyl-1H-pyrrolo[2,3-f]indazol-7-yl]-1-methyl-cyclobutanecarboxylic Acid]
1160 to 3000	O=C(O)C1CC(Cc2c(C3CCOCC3)n(-c3ccc(F)c(Cl)c3)c3cc4cn[nH]c4cc23)C1 (mixture of isomers) [Compound 79]
1160 to 3000	O=C(O)C1CCC(Cc2c(C3CCOCC3)n(-c3ccc(F)c(Cl)c3)c3cc4cn[nH]c4cc23)CC1 (mixture of isomers) [Compound 83]
1160 to 3000	O=C(O)CC1CC(c2c(C3CCOCC3)n(-c3ccc(F)c(Cl)c3)c3cc4cn[nH]c4cc23)C1 (mixture of isomers) [Compound 85]
1160 to 3000	Cc1cc(-n2c(C3CCOCC3)c(C3CC(CC(=O)O)C3)c3cc4[nH]ncc4cc32)ccc1F (mixture of isomers) [Compound 93]
< 1160	Cc1cc(-n2c(C3CCOCC3)c(CC3CC(C(=O)O)C3)c3cc4[nH]ncc4cc32)ccc1F (mixture of isomers) [Compound 96]
1160 to 3000	O=C(O)C1CC2(C1)CC(c1c(C3C[C@H]4CC[C@@H](C3)O4)n(-c3ccc(F)cc3)c3cc4cn[nH]c4cc13)C2 (mixture of isomers) [Compound 122, 6-[5-(4-fluorophenyl)-6-(8-oxabicyclo[3.2.1]octan-3-yl)-1H-pyrrolo[2,3-f]indazol-7-yl]spiro[3.3]heptane-2-carboxylic Acid]
< 1160	COCC(C)(C)c1c(C2CC(C)(C(=O)O)C2)c2cc3[nH]ncc3cc2n1-c1ccc(F)cc1 (mixture of isomers) [Compound 176]
> 3000	CCOC(=O)[C@@H]1C[C@@H]1c1c(C(C)C)n(-c2ccc(F)c(C)c2)c2cc3cn[nH]c3cc12 (racemic) [Compound 15, ethyl (1R,2S)-2-[5-(4-fluoro-3-methyl-phenyl)-6-isopropyl-1H-pyrrolo[2,3-f]indazol-7-yl]cyclopropanecarboxylate]
< 1160	Cc1cc(-n2c(C(C)C)c(CC(C)C(=O)O)c3cc4[nH]ncc4cc32)ccc1F (racemic) [Compound 19]
< 1160	Cc1cc(-n2c(C(C)C)c(C3CC4(CC(C(=O)O)C4)C3)c3cc4[nH]ncc4cc32)ccc1F (racemic) [Compound 24]
< 1160	CC(C)c1c(C2CC3(CC(C(=O)O)C3)C2)c2cc3[nH]ncc3cc2n1-c1ccc(F)cc1 (racemic) [Compound 34, 6-[5-(4-fluorophenyl)-6-isopropyl-1H-pyrrolo[2,3-f]indazol-7-yl]spiro[3.3]heptane-2-carboxylic acid]
1160 to 3000	Cc1cc(-n2c(C(C)C)c(C3CC4(CC(C(=O)O)C4)C3)c3cc4[nH]nc(C)c4cc32)ccc1F (racemic) [Compound 56, 6-[5-(4-fluoro-3-methyl-phenyl)-6-isopropyl-3-methyl-1H-pyrrolo[2,3-f]indazol-7-yl]spiro[3.3]heptane-2-carboxylic acid]
< 1160	Cc1cc(-n2c(C(C)C)c(C3CC4(CC(C(=O)O)C4)C3)c3c(F)c4[nH]nc(C)c4cc32)ccc1F (racemic) [Compound 59, 6-[8-fluoro-5-(4-fluoro-3-methyl-phenyl)-6-isopropyl-3-methyl-1H-pyrrolo[2,3-f]indazol-7-yl]spiro[3.3]heptane-2-carboxylic Acid]
< 1160	O=C(O)C1CC2(C1)CC(c1c(C3CCOCC3)n(-c3ccc(F)c(Cl)c3)c3cc4cn[nH]c4cc13)C2 (racemic) [Compound 76]
> 3000	COC(=O)C1CC2(C1)CC(c1c(C3CCOCC3)n(-c3ccc(F)c(C)c3)c3cc4cn[nH]c4cc13)C2 (racemic) [Compound 89]
< 1160	Cc1cc(-n2c(C3CCOCC3)c(C3CC4(CC(C(=O)O)C4)C3)c3cc4[nH]ncc4cc32)ccc1F (racemic) [Compound 90]
1160 to 3000	Cc1cc(-n2c(C3CCOCC3)c(CC(C)C(=O)O)c3cc4[nH]ncc4cc32)ccc1F (racemic) [Compound 105]
1160 to 3000	O=C(O)C1CC2(C1)CC(c1c(C3CCOCC3)n(-c3ccc(F)cc3)c3cc4cn[nH]c4cc13)C2 (racemic) [Compound 108, 6-(5-(4-fluorophenyl)-6-(tetrahydro-2H-pyran-4-yl)-1,5-dihydropyrrolo[2,3-f]indazol-7-yl)spiro[3.3]heptane-2-carboxylic Acid]
> 3000	O=C(O)C1CC(Cc2c(C3CCOCC3)n(-c3ccc(F)cc3)c3cc4cn[nH]c4cc23)C1 (racemic) [Compound 116]
1160 to 3000	O=C1CCCC(c2c(C3CCOCC3)n(-c3ccc(F)cc3)c3cc4cn[nH]c4cc23)C1 (racemic) [Compound 121, 3-[5-(4-fluorophenyl)-6-tetrahydropyran-4-yl-1H-pyrrolo[2,3-f]indazol-7-yl]cyclohexanone]
1160 to 3000	Cc1cc(-n2c(C3CCOCC3)c(C3CC4(CC(C(=O)O)C4)C3)c3cc4[nH]nc(C)c4cc32)ccc1F (racemic) [Compound 126, 6-[5-(4-fluoro-3-methyl-phenyl)-3-methyl-6-tetrahydropyran-4-yl-1H-pyrrolo[2,3-f]indazol-7-yl]spiro[3.3]heptane-2-carboxylic acid]
> 3000	Cc1n[nH]c2cc3c(C4CC5(CC(C(=O)O)C5)C4)c(C4CCOCC4)n(-c4ccc(F)c(F)c4)c3cc12 (racemic) [Compound 129, 6-[5-(3,4-difluorophenyl)-3-methyl-6-tetrahydropyran-4-yl-1H-pyrrolo[2,3-f]indazol-7-yl]spiro[3.3]heptane-2-carboxylic Acid]
< 1160	O=C(O)C1CC2(C1)CC(c1c(C3CCOCC3)n(-c3ccc(F)cc3)c3cc4cn[nH]c4c(F)c13)C2 (racemic) [Compound 135, 6-[8-fluoro-5-(4-fluorophenyl)-6-tetrahydropyran-4-yl-1H-pyrrolo[2,3-f]indazol-7-yl]spiro[3.3]heptane-2-carboxylic acid]
> 3000	O=C(O)C1CC2(C1)CC(c1c(C3CCOC3)n(-c3ccc(F)cc3)c3cc4cn[nH]c4cc13)C2 (racemic) [Compound 140, 6-[5-(4-fluorophenyl)-6-tetrahydrofuran-3-yl-1H-pyrrolo[2,3-f]indazol-7-yl]spiro[3.3]heptane-2-carboxylic acid]
< 1160	Cc1cc(-n2c(C(C)C)c(C3CC3C(=O)O)c3cc4[nH]ncc4cc32)ccc1F (single isomer, unassigned) [Compound 13, 2-[5-(4-fluoro-3-methyl-phenyl)-6-isopropyl-1H-pyrrolo[2,3-f]indazol-7-yl]cyclopropanecarboxylic acid]
< 1160	Cc1cc(-n2c(C(C)C)c(C3CC3C(=O)O)c3cc4[nH]ncc4cc32)ccc1F (single isomer, unassigned) [Compound 14, 2-[5-(4-fluoro-3-methyl-phenyl)-6-isopropyl-1H-pyrrolo[2,3-f]indazol-7-yl]cyclopropanecarboxylic acid]
